{"source": "patent US20230220353A1", "about": "“IN VITRO LIVER ORGANOIDS AND MINI-BILE DUCT MODELS OF BILIARY ARTRESIA AND APPLICATIONS THEREOF” (priority 2022, published 2023)", "key": {"human liver organoids [1]": {"tested_on": "human liver organoids", "assay": "Growth and morphology of human liver organoids (Hematoxylin and Eosin staining)", "assay_type": "cell-based", "conditions": "2 μg/ml biliatresone", "experimental": "Briefly, liver biopsy was minced and digested in gentle MACS-C Tube with 5 ml digestion medium (Multi Tissue Dissociation Kit 1), filtered (70 μm and 30 μm) and sorted by human CD326 (EpCAM) magnetic beads. CD326 positive cells were mixed with Matrigel (50,000 cells in 50 μl) and added to each well of a four-well culture plate (Nunc™ 4-Well Dishes). After Matrigel solidification, organoid medium (Advanced DMEM/F12 supplemented with 1% Penicillin/Streptomycin (Invitrogen), 250 ng/ml Amphotericin B (GIBCO), […], 1% N2 and 1% B27(GIBCO), 1.25 mM N-Acetylcysteine (Sigma), 10 nM gastrin (Sigma), and the growth factors: 50 ng/ml mEGF (Peprotech), 100 ng/ml FGF10 (Peprotech), 25 ng/ml HGF (Peprotech), 10 mM Nicotinamide (Sigma), 5 μM A83.01 (Tocris), and 10 μM FSK (Tocris), 25 ng/ml Noggin (Peprotech), 500 ng/ml R-Spondin 1 (R&D), 100 ng/ml Wnt3a (R&D), 10 μM Y27632 (Sigma Aldrich)) was added for organoid culturing. The medium was changed every three days. After culturing for 5 days, biliatresone solution (2867, Axon MEDCHEM; 2 μg/ml in DMSO) was added into the medium and the organoids were cultured for different periods for subsequent analysis. For the untreated control culture, DMSO (same volume as biliatresone) was added to the culture. FIG. 1 is a schematic diagram of the generation of biliatresone treated human liver organoids. […]"}, "human liver organoids [2]": {"tested_on": "human liver organoids", "assay": "Immunostaining of human liver organoids for differentiation, polarity, cytoskeleton and β-amyloid markers", "assay_type": "cell-based", "experimental": "Hepatocytic differentiation in human organoids was assessed by immuno-fluorescence for hepatocyte maker (HNF4A). Organoids in the Matrigel were washed with PBS (phosphate-buffered saline) before being fixed with 4% paraformaldehyde at room temperature for 20 minutes. The organoids were permeabilized with Triton X-100 (0.5% in PBS) for 20 minutes and blocked with 3% bovine serum albumin (BSA, Sigma-Aldrich) in PBS with 0.05% Triton X-100 (PBST) for 30 minutes at room temperature. The organoids were then incubated in primary antibodies (diluted in PBST with 3% BSA) at 4° C. overnight. After PBST washes (5 minutes for 3 times), organoids were incubated in secondary antibodies (diluted in PBST with 3% BSA) for 2 hours at room temperature. Afterward, the organoids were rinsed with PBS 3 times and incubated with DAPI solution for 30 minutes at room temperature. The organoids were rinsed with PBS (5 minutes for 3 times). Primary and secondary antibodies used in this examples were anti-ZO-1 (1:50, RA231621, Thermo Fisher), anti-CK19 (1:200, ab220193, Abcam), anti-F-actin (1:500, A22287, Thermo Fisher), anti-beta-amyloid (1:200, SIG-39220, 4G8, BioLegend), anti-HNF4A (1:50, ab201460, Abcam), Alexa Fluor 488 (1:500, A11008, Invitrogen) and Alexa Fluor 594 (1:500, A11032, Invitrogen).\n(§1) Organoids were imaged on a laser confocal microscopy (Leica) equipped with a 20× dry objective and a 63× oil-immersion objective. Images were analyzed using ImageJ software. For quantification of the number of cilia from each group, the organoids were imaged using confocal microscopy (0.8 μm Z-axis interval, 40 μm in thickness). Maximum intensity projection was performed for visualization of the cilia in the organoids. FIG. 3A are representative images of control and day-2 biliatresone-treated human liver organoids stained for HNF4A (green). Nuclei were stained with DAPI (blue). The percentage of HNF4A positive cells in control and day-2 biliatresone-treated organoids were determined by counting the total number of cells and HNF4A+ cells of the organoids. Number of organoids counted in each group=3; *, p<0.05, student's t-test; error bars indicated the standard deviation.\nTo test if biliatresone induces apical-basal polarity defects in human organoids, the control group and biliatresone-treated organoids were stained with anti-ZO-1 antibody. FIG. 4 depicts the result of immunostaining of control and day-2 biliatresone-treated human liver organoids for ZO-1 (green) and CK19 (red). Nuclei were stained with DAPI (blue).\nTo investigate if biliatresone also induces cytoskeleton defects and Aβ accumulation in human organoids, Immunostaining was carried out for the control and day-2 biliatresone-treated human liver organoids for cytoskeleton protein F-actin (green) and β-amyloid (red). Nuclei were stained with DAPI (blue).\nThe percentages of β-amyloid positive cells in control and day-2 biliatresone-treated organoids were determined by counting total number of cells and β-amyloid+ cells of the organoids. Number of organoids counted in each group=3; *, p<0.05, student's t-test; error bars indicated the standard deviation."}, "MDR1": {"target": "MDR1 (Homo sapiens, UniProt P08183)", "sequence (P08183 whole entry)": "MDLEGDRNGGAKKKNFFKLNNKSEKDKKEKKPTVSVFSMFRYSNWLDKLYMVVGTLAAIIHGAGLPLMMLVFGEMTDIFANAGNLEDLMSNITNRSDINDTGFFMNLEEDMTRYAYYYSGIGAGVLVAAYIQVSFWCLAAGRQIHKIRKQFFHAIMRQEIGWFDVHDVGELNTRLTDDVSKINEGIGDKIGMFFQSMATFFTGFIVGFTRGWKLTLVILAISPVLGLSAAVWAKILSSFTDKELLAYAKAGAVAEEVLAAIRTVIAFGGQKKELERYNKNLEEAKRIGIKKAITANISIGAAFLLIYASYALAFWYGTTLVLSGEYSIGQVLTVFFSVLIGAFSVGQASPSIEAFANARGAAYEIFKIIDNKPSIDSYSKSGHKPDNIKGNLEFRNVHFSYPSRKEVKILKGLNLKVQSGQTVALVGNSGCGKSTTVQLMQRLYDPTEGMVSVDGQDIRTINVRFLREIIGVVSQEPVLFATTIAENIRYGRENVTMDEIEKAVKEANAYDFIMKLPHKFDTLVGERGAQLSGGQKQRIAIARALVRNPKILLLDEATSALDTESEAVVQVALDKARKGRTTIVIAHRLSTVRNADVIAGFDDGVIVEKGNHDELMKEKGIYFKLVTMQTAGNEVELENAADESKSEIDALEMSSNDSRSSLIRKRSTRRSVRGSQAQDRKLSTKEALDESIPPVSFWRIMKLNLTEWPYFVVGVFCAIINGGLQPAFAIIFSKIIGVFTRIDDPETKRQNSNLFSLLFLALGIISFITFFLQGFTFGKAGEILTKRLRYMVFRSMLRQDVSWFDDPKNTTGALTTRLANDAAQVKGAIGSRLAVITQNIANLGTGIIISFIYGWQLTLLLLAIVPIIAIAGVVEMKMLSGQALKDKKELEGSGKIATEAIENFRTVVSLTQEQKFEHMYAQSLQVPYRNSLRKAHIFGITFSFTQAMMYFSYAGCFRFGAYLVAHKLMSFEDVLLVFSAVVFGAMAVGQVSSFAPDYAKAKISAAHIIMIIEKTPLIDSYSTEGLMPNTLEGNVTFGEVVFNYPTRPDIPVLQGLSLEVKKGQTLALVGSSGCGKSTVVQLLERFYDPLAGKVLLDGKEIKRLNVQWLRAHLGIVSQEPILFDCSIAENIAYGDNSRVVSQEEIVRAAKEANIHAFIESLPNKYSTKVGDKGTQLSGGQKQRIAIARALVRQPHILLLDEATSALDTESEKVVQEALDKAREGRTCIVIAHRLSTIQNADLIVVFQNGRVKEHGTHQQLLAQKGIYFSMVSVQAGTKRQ", "assay": "MDR1 activity assay (MDR1-mediated Rhodamine 123 transport assay)", "conditions": "day-2 biliatresone-treated organoids, Rhodamine 123 100 μM, 30 minutes", "experimental": "A MDR1 activity assay (MDR1-mediated Rhodamine 123 (R123) transport assay) was then performed to investigate the defective cholangiocyte differentiation of biliatresone-treated organoids.\nAfterward, the liver organoids were washed with PBS and incubated in culture medium containing Rhodamine 123 (100 μM) at 37° C. for 30 minutes. After washing with PBS, the fluorescence of liver organoids was then visualized by laser confocal microscopy (Leica) immediately (as 0 minutes) and after 30 minutes incubation in culture medium."}, "human liver organoids [3]": {"tested_on": "human liver organoids", "assay": "FITC-labeled dextran diffusion test (tight junction barrier integrity)", "assay_type": "cell-based", "conditions": "day-2 treated organoids, after 10 minutes of incubation; not observed in control", "experimental": "In order to determine the integrity of liver organoids, a FITC-labeled dextran diffusion test was carried out to investigate if biliatresone-treated organoids has defects in the tight junction barrier for solutes. […] The fluorescent intensity of liver organoids was imaged using laser confocal microscopy at 10 and 30 minutes."}, "human liver organoids [4]": {"tested_on": "human liver organoids", "assay": "Ciliated cholangiocyte count (pericentrin / acetylated α-tubulin immunostaining)", "assay_type": "cell-based", "experimental": "as §1\nTo investigate if biliatresone disturbed ciliogenesis in human organoids, control organoids and biliatresone-treated organoids were immuno-stained for ciliary proteins Pericentrin (PCNT) and alpha-tubulin. […] The percentages of ciliated cells in control and biliatresone-treated organoids were determined by counting total number of cells and ciliated cells of the organoids. Number of organoids counted in each group=3; *, p<0.05, student's t-test; error bars indicated the standard deviation."}, "human cholangiocytes": {"tested_on": "human cholangiocytes", "assay": "Cilia mechano-sensory calcium influx assay in mini-bile duct under shear flow (Calbryte 520)", "assay_type": "cell-based", "conditions": "2 μg/ml for 5 days, shear flow 1 dyne/cm2, vs untreated cholangiocytes", "experimental": "The organoids were released from the Matrigel by cold Advanced DMEM. The organoid pellets were obtained by centrifugation at 300 g, 3 minutes. Afterwards, the organoids were digested for 5 minutes at 37° C. via 1 mL of TrypLE Express Enzyme (1×). About 5,000 of organoid cells were seeded into each channel of the Matrigel coated 6-channel ibidi microfluidic chips (80607, ibidi), and the microfluidic chips were incubated at 37° C. in incubator. At day 3, monoloayer of cholangiocytes was formed representing the mini-bile duct with the luminal side facing the medium and the basal side facing the bottom of the microfluidic chips. To prepare for the calcium influx measurement, cholangiocyte monolayer was first incubated with 5 μM of Calbryte 520-AM (ATT) (prepared in Hanks' balanced salt solution, HBSS) for 1 hour at 37° C. Then, the cholangiocytes were washed with HBSS (5 minutes for 3 times). […] Time-lapse images were acquired for green fluorescence for 20 seconds (1-second intervals and 10 milliseconds exposure time) using Nikon Ti2e microscope (Nikon, Japan). […]\nOn day 3 post confluence, cholangiocytes were incubated with 5 μM of Calbryte 520-AM (ATT) (prepared in Hanks' balanced salt solution, HBSS) for 1 hour at 37° C. […] Time-lapse images were acquired for green fluorescence for 20 seconds (1-second intervals and 10 milliseconds exposure time) using Nikon Ti2e microscope (Nikon, Japan). […]"}, "SOX17": {"tested_on": "SOX17", "assay": "SOX17 mRNA expression by real-time PCR normalized to GAPDH", "assay_type": "cell-based, human", "conditions": "day-2 treated organoids vs control", "text": "Gene expressions in liver ductal organoids with or without biliatresone treatment for 2 day and 5 days were investigated. mRNA expression levels were characterized by real-time PCR for SOX17 normalized to GAPDH."}, "GSH": {"tested_on": "GSH", "assay": "GSH level in liver organoids", "assay_type": "cell-based, human", "experimental": "GSH levels were measured in liver organoids from 0 to 48 hours without (Ctrl) or with biliatresone. Data was obtained from 3 wells in each group; *, p<0.05, student's t-test; error bars indicated the standard deviation."}, "[5]": {"conditions": "day-2 treated organoids vs control"}}}
{"smiles": "C=C(C(=O)c1c(OC)cc2c(c1OC)OCO2)c1ccccc1O", "note": "[biliatresone, Biliatresone]", "values": [{"measurement": "organoid morphology", "setting": "human liver organoids [1]; day 5, vs DMSO control", "result": "not well-expanded"}, {"measurement": "organoid diameter", "setting": "human liver organoids [1]; day 5, control organoids 25-100 μm", "result": "5-20 μm"}, {"measurement": "percentage of Aβ positive cells", "setting": "human liver organoids [2]; day-2 treated culture vs control culture (no Aβ positive cells in control), p<0.05", "result": "significantly higher"}, {"measurement": "ZO-1 immuno-reactivity", "setting": "human liver organoids [2]; [5]", "result": "markedly reduced"}, {"measurement": "expression of cholangiocyte MDR1", "setting": "human liver organoids [2]; [5]", "result": "drastically reduced"}, {"measurement": "percentage of HNF4A+ cells in organoids", "setting": "human liver organoids [2]; day-2 treated organoids, 2 μg/ml, Mean±SD, n=3, control 14.9±2%", "result": "57.3±8", "unit": "%"}, {"measurement": "F-actin localization", "setting": "human liver organoids [2]; day-2 treated organoids, control: apical side only", "result": "both the apical and the basal sides"}, {"measurement": "expression of cholangiocyte marker CK19", "setting": "human liver organoids [2]; treated organoids vs control", "result": "drastically reduced"}, {"measurement": "R123 transport across the organoid membrane", "setting": "MDR1", "result": "very inefficient"}, {"measurement": "FITC-dextran (10 kDa) localization", "setting": "human liver organoids [3]", "result": "localize in the lumen"}, {"measurement": "percentage of ciliated cells", "setting": "human liver organoids [4]; day 1 of treatment, Mean±SD, control 10.7±5%", "result": "4.2±2", "unit": "%"}, {"measurement": "percentage of ciliated cells", "setting": "human liver organoids [4]; day 3 of treatment", "result": 0, "unit": "%"}, {"measurement": "extent of calcium influx", "setting": "human cholangiocytes", "result": "significantly reduced"}, {"measurement": "percentage of evoked cells after perfusion stimulation", "setting": "human cholangiocytes", "result": "significantly reduced"}, {"measurement": "SOX17 expression", "setting": "SOX17", "result": "small but significant drop"}, {"measurement": "GSH level", "setting": "GSH; 6, 24 and 48 hours of treatment", "result": "restored"}, {"measurement": "GSH level", "setting": "GSH; 3 hours of treatment vs control", "result": "small but significant drop"}]}
